Test results reported in patent US7511144B2, “Reverse hydroxamic acid derivatives” (Kaken Pharmaceutical Co., Ltd., priority 2001, dated 2009).
Like-named read-outs stand apart in the source and are kept apart here.

Experiments:
Human MMP1 = target: T1, Human MMP1 (Homo sapiens, UniProt P03956); assay: MMP1 inhibition experiment; format: biochemical; details: read-out: IC50 value MMP-1
T1 construct: purchased Calbiochem 444208
T1 sequence (P03956 100-469): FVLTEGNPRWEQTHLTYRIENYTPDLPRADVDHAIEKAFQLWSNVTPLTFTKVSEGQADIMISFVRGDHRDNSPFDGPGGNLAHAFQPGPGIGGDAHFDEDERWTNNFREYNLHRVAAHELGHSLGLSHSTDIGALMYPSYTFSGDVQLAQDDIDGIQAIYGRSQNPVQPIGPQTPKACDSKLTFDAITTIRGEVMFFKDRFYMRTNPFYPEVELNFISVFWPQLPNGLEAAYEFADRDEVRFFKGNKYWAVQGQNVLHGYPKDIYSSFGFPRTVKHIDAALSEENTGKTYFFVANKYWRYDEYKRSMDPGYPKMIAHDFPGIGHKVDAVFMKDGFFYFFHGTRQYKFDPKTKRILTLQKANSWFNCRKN

Human MMP17 = target: T2, Human MMP17 (Homo sapiens, UniProt Q9ULZ9); assay: MMP17 inhibition test; format: biochemical; details: concentration required for 50% inhibition of enzyme activity; read-out: IC50 value MMP-17
T2 construct: purchased Calbiochem 475940
T2 sequence (Q9ULZ9 126-300 limits assumed): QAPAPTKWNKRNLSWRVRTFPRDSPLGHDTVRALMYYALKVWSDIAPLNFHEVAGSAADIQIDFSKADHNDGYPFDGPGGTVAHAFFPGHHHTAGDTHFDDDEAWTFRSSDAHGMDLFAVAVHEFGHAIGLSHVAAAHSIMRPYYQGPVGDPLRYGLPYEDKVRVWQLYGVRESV

Human MMP3 = target: T3, Human MMP3 (Homo sapiens, UniProt P08254); assay: MMP3 inhibition experiment; format: biochemical; details: concentration required for 50% inhibition of enzyme activity; read-out: IC50 value MMP-3
T3 construct: purchased Calbiochem 444217
How it was run: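 Fluorescence-quenched substrate NFF-3 (MOCAc/Dnp peptide, 20 μM as prepared) cleaved by 5 ng human MMP3 over 5 hours at 37° C, with inhibition measured from substrate fluorescence.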

Human MMP14 = target: T4, Human MMP14 (Homo sapiens, UniProt P50281); assay: MMP14 inhibition experiment; format: biochemical; details: concentration required for 50% inhibition of enzyme activity; read-out: IC50 value MMP-14
T4 construct: purchased Biogenesis or Calbiochem 5980-1461 or 475935
How it was run: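 Fluorescence assay: substrate Dnp-Pro-Cha-Gly-Cys(Me)-His-Ala-Lys(Nma)-NH2 (20 μM before equal-volume mixing) incubated at 37° C for 5 hours with 4 ng human MMP14.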

[1] = test system: TNF-α production (release); assay: Study for suppression of TNF-α production (release) in vivo; details: male Lewis rats, LPS 1 mL/kg i.v.; test compound 3 mg/kg subcutaneous 30 minutes later; plasma TNF-α 90 minutes after LPS (ELISA)
Human MMP13 = target: T5, Human MMP13 (Homo sapiens, UniProt P45452); assay: MMP13 inhibition experiment; format: biochemical; details: concentration required for 50% inhibition of enzyme activity; read-out: IC50 value MMP-13
T5 construct: purchased Chemicon CC068

Human MMP9 = target: T6, Human MMP9 (Homo sapiens, UniProt P14780); assay: MMP9 inhibition experiment; format: biochemical; details: read-out: IC50 value MMP-9
T6 construct: purchased Calbiochem 444231

TACE = target: T7, TACE (Homo sapiens, UniProt P78536); assay: TACE inhibition experiment (in vitro); format: biochemical; details: concentration required for 50% inhibition of enzyme activity
T7 construct: made in house; host or cells: mammalian cells or insect cells

Human MMP2 = target: T8, Human MMP2 (Homo sapiens, UniProt P08253); assay: MMP2 inhibition experiment; format: biochemical; details: concentration required for 50% inhibition of enzyme activity; read-out: IC50 value MMP-2
T8 construct: purchased Calbiochem 444213
T8 sequence (P08253 110-660): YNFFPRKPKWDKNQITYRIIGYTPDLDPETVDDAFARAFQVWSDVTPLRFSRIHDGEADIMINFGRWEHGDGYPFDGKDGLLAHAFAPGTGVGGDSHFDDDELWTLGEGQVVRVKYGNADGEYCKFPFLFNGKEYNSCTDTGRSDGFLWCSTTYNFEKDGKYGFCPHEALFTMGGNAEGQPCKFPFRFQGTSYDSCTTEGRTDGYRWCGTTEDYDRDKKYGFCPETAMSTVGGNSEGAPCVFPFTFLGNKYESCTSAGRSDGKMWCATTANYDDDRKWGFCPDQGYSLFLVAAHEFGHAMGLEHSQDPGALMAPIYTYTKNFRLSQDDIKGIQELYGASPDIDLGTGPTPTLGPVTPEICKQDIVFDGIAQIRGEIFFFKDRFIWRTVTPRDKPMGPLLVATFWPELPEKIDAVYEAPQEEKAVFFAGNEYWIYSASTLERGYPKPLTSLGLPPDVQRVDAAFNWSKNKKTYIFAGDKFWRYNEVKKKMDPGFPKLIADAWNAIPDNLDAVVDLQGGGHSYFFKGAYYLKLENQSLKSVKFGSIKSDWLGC

Human MMP8 = target: T9, Human MMP8 (Homo sapiens, UniProt P22894); assay: MMP8 inhibition experiment; format: biochemical; details: concentration required for 50% inhibition of enzyme activity; read-out: IC50 value MMP-8
T9 construct: purchased Calbiochem 444229
How it was run: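 Human MMP8 activated with APMA for 1 h at 37° C, then incubated with fluorogenic peptide MOCAc-Pro-Leu-Gly-Leu-A2pr(Dnp)-Ala-Arg-NH2 (20 μM stock) for 5 hours at 37° C. Fluorescent substrate cleavage serves as read-out.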

T3 sequence (P08254 100-272 limits assumed): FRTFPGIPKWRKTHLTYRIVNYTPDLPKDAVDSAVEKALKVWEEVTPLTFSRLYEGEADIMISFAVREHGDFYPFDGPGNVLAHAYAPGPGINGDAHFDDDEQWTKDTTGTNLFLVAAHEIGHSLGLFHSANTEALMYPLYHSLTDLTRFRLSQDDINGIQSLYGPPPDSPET
T7 sequence (P78536 215-824): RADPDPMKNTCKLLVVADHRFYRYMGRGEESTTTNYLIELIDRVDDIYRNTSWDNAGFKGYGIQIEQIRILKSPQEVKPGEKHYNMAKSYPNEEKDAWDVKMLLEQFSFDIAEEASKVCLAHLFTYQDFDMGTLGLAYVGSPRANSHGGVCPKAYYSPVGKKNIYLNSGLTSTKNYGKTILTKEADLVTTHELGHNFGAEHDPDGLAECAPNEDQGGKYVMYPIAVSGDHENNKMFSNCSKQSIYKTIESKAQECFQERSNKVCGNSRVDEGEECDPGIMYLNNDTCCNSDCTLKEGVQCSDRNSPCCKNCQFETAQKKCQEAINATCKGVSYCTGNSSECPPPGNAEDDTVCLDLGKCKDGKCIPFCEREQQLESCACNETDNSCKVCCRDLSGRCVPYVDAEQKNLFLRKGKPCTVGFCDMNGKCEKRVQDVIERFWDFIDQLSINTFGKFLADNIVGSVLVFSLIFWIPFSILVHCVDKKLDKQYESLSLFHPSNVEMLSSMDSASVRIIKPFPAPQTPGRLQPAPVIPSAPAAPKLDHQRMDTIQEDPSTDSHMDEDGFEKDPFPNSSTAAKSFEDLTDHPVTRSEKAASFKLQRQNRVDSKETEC
T6 sequence (P14780 107-707 limits assumed): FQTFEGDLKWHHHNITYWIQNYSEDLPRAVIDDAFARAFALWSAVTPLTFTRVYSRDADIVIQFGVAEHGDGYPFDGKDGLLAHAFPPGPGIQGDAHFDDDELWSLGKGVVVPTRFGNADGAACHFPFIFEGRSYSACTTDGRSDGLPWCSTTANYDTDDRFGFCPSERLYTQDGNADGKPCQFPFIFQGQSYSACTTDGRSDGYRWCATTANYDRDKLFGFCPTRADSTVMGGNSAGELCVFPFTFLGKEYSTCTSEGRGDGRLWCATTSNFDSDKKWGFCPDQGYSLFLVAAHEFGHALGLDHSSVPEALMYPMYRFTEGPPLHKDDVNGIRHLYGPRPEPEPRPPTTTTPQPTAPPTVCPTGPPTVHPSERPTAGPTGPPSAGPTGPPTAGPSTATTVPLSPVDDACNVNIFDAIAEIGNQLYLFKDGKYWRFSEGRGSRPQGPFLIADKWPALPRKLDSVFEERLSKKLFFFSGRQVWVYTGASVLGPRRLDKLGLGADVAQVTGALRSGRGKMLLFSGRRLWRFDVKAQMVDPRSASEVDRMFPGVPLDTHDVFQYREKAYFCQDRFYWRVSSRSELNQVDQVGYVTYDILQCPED
T9 sequence (P22894 101-467): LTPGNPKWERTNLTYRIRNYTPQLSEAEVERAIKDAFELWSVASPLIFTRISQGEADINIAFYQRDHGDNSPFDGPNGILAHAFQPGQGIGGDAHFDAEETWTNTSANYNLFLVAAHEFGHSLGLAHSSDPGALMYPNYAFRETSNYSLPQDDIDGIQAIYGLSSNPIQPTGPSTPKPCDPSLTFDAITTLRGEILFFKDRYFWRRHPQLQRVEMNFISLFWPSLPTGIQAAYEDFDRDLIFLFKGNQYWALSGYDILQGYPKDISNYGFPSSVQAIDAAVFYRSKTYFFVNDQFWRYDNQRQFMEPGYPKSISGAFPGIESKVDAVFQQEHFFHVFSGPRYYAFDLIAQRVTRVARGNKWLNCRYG

IC50 (Human MMP1) [µM] | IC50 (Human MMP17) [µM] | IC50 (Human MMP3) [µM] | IC50 (Human MMP14) [µM] | IC50 (Human MMP13) [µM] | IC50 (Human MMP9) [µM] | IC50 (TACE) [µM] | IC50 (Human MMP2) [µM] | IC50 (Human MMP8) [µM] | IC50 (Human MMP9; concentration required for 50% inhibition of enzyme activity) [µM] | Structure (SMILES) | Suppression rate of TNF-α production (release) (%) [1] [%]
60 | 0.4 | 1.5 | 53 | 6 | 50 | – | – | – | – | Cc1cc(COc2ccc(S(=O)(=O)CC(CC3CCC(=O)CC3)N(O)C=O)cc2)c2ccccc2n1 (stereo not drawn) [Example I-2, N-Hydroxy-N-[2-{4-(2-methylquinolin-4-ylmethoxy)benzenesulfonyl}-1-(4-oxocyclohexylmethyl)ethyl]formamide] | 42.3
– | 4 | 10 | – | 40 | – | 0.006 | – | – | – | Cc1cc(COc2ccc(S(=O)(=O)CC(C=C3CCN(CC(C)C)CC3)N(O)C=O)cc2)c2ccccc2n1 (stereo not drawn) [Example I-24, N-Hydroxy-N-{1-(1-isobutylpiperidin-4-ylidenemethyl)-2-[4-(2-methylquinolin-4-ylmethoxy)benzenesulfonyl]ethyl}formamide] | 56.0
43 | 4 | 10 | 50 | 25 | – | 0.003 | 55 | > 100 | 31 | Cc1cc(COc2ccc(S(=O)(=O)CC(C=C3CCSCC3)N(O)C=O)cc2)c2ccccc2n1 (stereo not drawn) [Example I-17, N-Hydroxy-N-{2-[4-(2-methylquinolin-4-ylmethoxy)benzenesulfonyl]-1-(tetrahydrothiopyran-4-ylidenemethyl)ethyl}formamide] | –
